IC50 and MTAP intact/deleted ratio data for 19 molecules are collected here from patent publication US11999727B2 (Tango Therapeutics, Inc., priority 2020, dated 2024).

The target in assay [1] is T1, PRMT5 (Homo sapiens, UniProt O14744).
T1 construct: purchased Viva (custom protein)
Nature of the assay: PRMT5 biochemical IC50 assay with no cofactor. To be noted: PRMT5, no cofactor; read-out: No Cofactor/rel IC50. An excerpt: Table 1 indicates IC50 values (μM) against PRMT5 for exemplary compounds in the presence of SAM as cofactor, with no cofactor, and with MTA as cofactor, respectively (columns 4-6). […] Ki values can be calculated from the IC50 values as described in the Examples section. As detailed in the Examples section, for the assay performed in the presence of SAM, IC50=Ki×1.5 (Ki=IC50/1.5).

Assay [2] has as its system HAP1 MTAP-deleted cell line. Nature of the assay: Viability assay, MTAP-deleted cell line. Type of assay: cell-based. The conditions noted are these: Homo sapiens. The text has this: Table 1 additionally indicates IC50 values in a viability assay for the MTAP-deleted cell line (column 10), indicating the effect of treatment with compound on cell survival.
Assay [3] deals with HAP1 MTAP-deleted cell line. Nature of the assay: SDMA in-cell western assay, HAP1 MTAP-deleted. Type of assay: cell-based. The conditions noted are these: for IC50: Homo sapiens; for MTAP intact/deleted ratio: IC50 ratio HAP1 MTAP-intact vs HAP1 MTAP-deleted, SDMA in-cell western. In short, it runs like this: (§1)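 Compounds were tested in HAP1 cells differing only in MTAP status (endogenous expression versus null). Cellular SDMA levels were then measured by in-cell western, giving an IC50 in each background.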

In assay [4] the test system is HAP1 MTAP-intact cell line. Briefly: SDMA in-cell western assay, HAP1 MTAP-intact. It counts as cell-based. The conditions noted are these: Homo sapiens. In short, it runs like this:
as §1

The target in assay [5] is T1, PRMT5. Briefly: PRMT5 biochemical IC50 assay with MTA as cofactor. The conditions noted are these: PRMT5, MTA as cofactor; read-out: MTA IC50.
The target of assay [6] is T1, PRMT5. Nature of the assay: PRMT5 biochemical IC50 assay with SAM as cofactor. To be noted: PRMT5, SAM as cofactor; read-out: SAM IC50.
The mark [7] stands for this setting: HAP1, viability assay, MTAP-deleted cell line, read-out: HAP1 MTAP deleted viability.
[8] abbreviates: HAP1, SDMA in-cell western, HAP1 MTAP-deleted, read-out: HAP1 MTAP deleted IC50.
The mark [9] stands for this setting: HAP1, SDMA in-cell western, HAP1 MTAP-intact, read-out: MTAP HAP1 intact IC50.

Like-named read-outs stand apart in the source and are kept apart here.

T1 sequence (O14744 whole entry): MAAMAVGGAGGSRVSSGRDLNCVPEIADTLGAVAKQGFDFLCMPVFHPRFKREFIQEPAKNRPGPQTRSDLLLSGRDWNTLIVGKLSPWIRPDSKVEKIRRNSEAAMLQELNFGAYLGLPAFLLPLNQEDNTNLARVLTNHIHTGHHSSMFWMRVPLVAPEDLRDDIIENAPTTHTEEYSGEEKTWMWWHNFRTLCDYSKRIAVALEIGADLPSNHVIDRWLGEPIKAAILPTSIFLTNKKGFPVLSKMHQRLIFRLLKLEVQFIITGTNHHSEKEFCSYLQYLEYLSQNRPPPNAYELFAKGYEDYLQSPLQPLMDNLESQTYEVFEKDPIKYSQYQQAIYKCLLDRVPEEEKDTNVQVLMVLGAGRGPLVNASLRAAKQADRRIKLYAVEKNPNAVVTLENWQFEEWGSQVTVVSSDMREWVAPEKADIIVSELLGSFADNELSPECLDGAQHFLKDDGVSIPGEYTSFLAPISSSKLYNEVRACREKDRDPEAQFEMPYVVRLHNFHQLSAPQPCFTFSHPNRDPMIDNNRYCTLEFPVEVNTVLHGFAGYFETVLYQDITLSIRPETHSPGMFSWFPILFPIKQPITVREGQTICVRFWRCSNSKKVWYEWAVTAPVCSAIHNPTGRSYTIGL
T1 sequence (Q9BQA1 whole entry partner): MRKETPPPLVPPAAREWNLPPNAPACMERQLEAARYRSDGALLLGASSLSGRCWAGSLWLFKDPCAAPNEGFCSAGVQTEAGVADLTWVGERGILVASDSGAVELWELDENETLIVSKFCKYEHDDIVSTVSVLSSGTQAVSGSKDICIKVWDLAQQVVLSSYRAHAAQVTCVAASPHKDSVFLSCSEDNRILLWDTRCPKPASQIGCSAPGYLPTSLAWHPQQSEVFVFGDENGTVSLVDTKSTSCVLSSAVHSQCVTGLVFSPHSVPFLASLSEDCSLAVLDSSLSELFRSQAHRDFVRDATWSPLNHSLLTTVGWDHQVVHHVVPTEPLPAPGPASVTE

Turning to `Cc1cc(NC(=O)C(=O)N2C[C@H](C)CC[C@H]2c2cc3cn[nH]c3s2)cnc1N` (single isomer, unassigned) [Compound 1120], the IC50 at PRMT5 [1] is more than 500 nM; in assay [2] (setting [7]), more than 10000 nM; in assay [3] (setting [8]) it was more than 1000 nM; in assay [4] (setting [9]) it was more than 1000 nM; on PRMT5 [5], more than 500 nM; at PRMT5 [6], more than 500 nM.
As for `Cc1cc(NC(=O)C(=O)N2C[C@H](C)CC[C@H]2c2cccc(N3CCN(C)CC3)c2)cnc1N` (single isomer, unassigned) [Compound 1121], the IC50 at PRMT5 [1] is more than 500 nM; in assay [2] (setting [7]) it was more than 10000 nM; in assay [3] (setting [8]), more than 1000 nM; in assay [4] (setting [9]), more than 1000 nM; on PRMT5 [5] it was more than 500 nM; on PRMT5 [6], more than 500 nM.
For `C[C@H]1CC[C@H](c2ccc3sc(CCN(C)C)nc3c2)N(C(=O)C(=O)Nc2cncc(C(N)=O)c2)C1` (single isomer, unassigned) [Compound 1128], the IC50 is more than 500 nM on PRMT5 [1]; 1000 to 10000 nM in assay [2] (setting [7]); 100 to 1000 nM in assay [3] (setting [8]); more than 1000 nM in assay [4] (setting [9]); more than 500 nM on PRMT5 [5]; more than 500 nM on PRMT5 [6].
As for `CCc1cc(NC(=O)C(=O)N2C[C@@H](C)CC[C@@H]2c2ccc3sc([C@H]4CCN(C)C(C)(C)C4)nc3c2)cnc1N` (single isomer, unassigned) [Compound 1129], the IC50 is less than 50 nM at PRMT5 [1]; less than 1000 nM in assay [2] (setting [7]); less than 100 nM in assay [3] (setting [8]); less than 100 nM in assay [4] (setting [9]); less than 50 nM at PRMT5 [5]; 50 to 500 nM on PRMT5 [6]. For the same molecule, the MTAP intact/deleted ratio entry in assay [3] is reported as “B (an IC50 ratio greater than or equal to 3 fold but lower than 10 fold)”.
`CO[C@@H]1C[C@@H](c2ccc3scnc3c2)N(C(=O)C(=O)Nc2cnc(N)c(C)c2)C[C@@H]1C` (single isomer, unassigned) [Compound 1130]: the IC50 on PRMT5 [1] is more than 500 nM; in assay [2] (setting [7]) it was more than 10000 nM; in assay [3] (setting [8]), more than 1000 nM; in assay [4] (setting [9]), more than 1000 nM; at PRMT5 [5] it was more than 500 nM; on PRMT5 [6], more than 500 nM.
On to `CCc1cc(NC(=O)C(=O)N2CC(C)CCC2c2ccc(N3CCC4C(CCCN4C)C3)cc2)cnc1N` (single isomer, unassigned) [Compound 1132], for which the IC50 on PRMT5 [1] was less than 50 nM; in assay [2] (setting [7]) it was less than 1000 nM; in assay [3] (setting [8]), less than 100 nM; in assay [4] (setting [9]), 100 to 1000 nM; on PRMT5 [5], less than 50 nM; on PRMT5 [6], 50 to 500 nM. The MTAP intact/deleted ratio entry in assay [3] was “A (an IC50 ratio greater than or equal to 10 fold)”.
Take `CCc1cc(NC(=O)C(=O)N2C[C@H](C)CC[C@H]2c2ccc3sc(CCN(C)C)nc3c2)cnc1N` (single isomer, unassigned) [Compound 1133]: the IC50 is more than 500 nM on PRMT5 [1]; 1000 to 10000 nM in assay [2] (setting [7]); more than 1000 nM in assay [3] (setting [8]); more than 1000 nM in assay [4] (setting [9]); more than 500 nM on PRMT5 [5]; more than 500 nM at PRMT5 [6].
Consider `Cc1cc(NC(=O)C(=O)N2C[C@@H](C)CC[C@@H]2c2ccc3sc([C@H]4CCN(C)C(C)(C)C4)nc3c2)cnc1C` (single isomer, unassigned) [Compound 1135], for which the IC50 is less than 50 nM on PRMT5 [1]; less than 1000 nM in assay [2] (setting [7]); less than 100 nM in assay [3] (setting [8]); 100 to 1000 nM in assay [4] (setting [9]); less than 50 nM at PRMT5 [5]; less than 50 nM at PRMT5 [6]. Further, the MTAP intact/deleted ratio result in assay [3] is listed as “A (an IC50 ratio greater than or equal to 10 fold)”.
For the molecule `CCc1cc(NC(=O)C(=O)N2C[C@@H](C)CC[C@@H]2c2ccc3sc([C@H]4CCN(C)C(=O)C4)nc3c2)cnc1N` (single isomer, unassigned) [Compound 1136], the IC50 is less than 50 nM on PRMT5 [1]; less than 1000 nM in assay [2] (setting [7]); less than 100 nM in assay [3] (setting [8]); 100 to 1000 nM in assay [4] (setting [9]); less than 50 nM at PRMT5 [5]; 50 to 500 nM at PRMT5 [6]. In assay [3], the MTAP intact/deleted ratio result is reported as “A (an IC50 ratio greater than or equal to 10 fold)”.
With `CCc1cc(NC(=O)C(=O)N2C[C@H](C)[C@H](OC)C[C@H]2c2ccc3scnc3c2)cnc1N` (single isomer, unassigned) [Compound 1138], the IC50 on PRMT5 [1] is more than 500 nM; in assay [2] (setting [7]) it was 1000 to 10000 nM; in assay [3] (setting [8]), 100 to 1000 nM; in assay [4] (setting [9]), more than 1000 nM; at PRMT5 [5] it was more than 500 nM; on PRMT5 [6], more than 500 nM.
Turning to `CCc1cc(NC(=O)C(=O)N2C[C@@H](C)CC[C@@H]2c2ccc(N3CC[C@@H]4CCN(C)C[C@@H]4C3)cc2)cnc1N` (single isomer, unassigned) [Compound 1144], the IC50 at PRMT5 [1] was less than 50 nM; in assay [2] (setting [7]) it was less than 1000 nM; in assay [3] (setting [8]) it was less than 100 nM; in assay [4] (setting [9]) it was 100 to 1000 nM; on PRMT5 [5], less than 50 nM; at PRMT5 [6], 50 to 500 nM. The MTAP intact/deleted ratio result in assay [3] was “A (an IC50 ratio greater than or equal to 10 fold)”.
For the molecule `COc1ncc(NC(=O)C(=O)N2C[C@@H](C)CC[C@@H]2c2ccc3sc(CCN(C)C)nc3c2)cc1C(N)=O` (single isomer, unassigned) [Compound 1146], the IC50 was less than 50 nM at PRMT5 [1]; less than 1000 nM in assay [2] (setting [7]); less than 100 nM in assay [3] (setting [8]); less than 100 nM in assay [4] (setting [9]); less than 50 nM at PRMT5 [5]; less than 50 nM at PRMT5 [6]. The MTAP intact/deleted ratio entry in assay [3] was “A (an IC50 ratio greater than or equal to 10 fold)”.
In the case of `CCc1cc(NC(=O)C(=O)N2C[C@H](C)CC[C@H]2c2ccc(N3CCOC4(CN(C)C4)C3)cc2)cnc1N` (single isomer, unassigned) [Compound 1150], the IC50 on PRMT5 [1] is more than 500 nM; in assay [2] (setting [7]), more than 10000 nM; in assay [3] (setting [8]), more than 1000 nM; in assay [4] (setting [9]) it was more than 1000 nM; on PRMT5 [5] it was more than 500 nM; at PRMT5 [6], more than 500 nM.
As to `C[C@H]1CC[C@H](c2ccc3sncc3c2)N(C(=O)C(=O)Nc2cnc(N)c(C3CC3)c2)C1` (single isomer, unassigned) [Compound 1153], the IC50 on PRMT5 [1] was less than 50 nM; in assay [2] (HAP1, read-out: HAP1 MTAP deleted viability), less than 1000 nM; in assay [3] (HAP1, read-out: HAP1 MTAP deleted IC50) it was less than 100 nM; in assay [4] (HAP1, read-out: MTAP HAP1 intact IC50), 100 to 1000 nM; on PRMT5 [5] it was less than 50 nM; on PRMT5 [6] it was 50 to 500 nM. Moreover, the MTAP intact/deleted ratio entry in assay [3] is “A (an IC50 ratio greater than or equal to 10 fold)”.
In the case of `C[C@H]1CC[C@H](c2ccc3sc(C4CCN(C)CC4)nc3c2)N(C(=O)C(=O)Nc2cnc(N)c([C@@H]3CCOC3)c2)C1` (single isomer, unassigned) [Compound 1154], the IC50 on PRMT5 [1] is less than 50 nM; in assay [2] (setting [7]), less than 1000 nM; in assay [3] (setting [8]), less than 100 nM; in assay [4] (setting [9]) it was less than 100 nM; on PRMT5 [5] it was less than 50 nM; on PRMT5 [6], less than 50 nM. The MTAP intact/deleted ratio entry in assay [3] is “A (an IC50 ratio greater than or equal to 10 fold)”.
For `C[C@@H]1CC[C@@H](c2ccc3nn(CCN(C)C)cc3c2)N(C(=O)C(=O)Nc2cnc(N)c(C3CC3)c2)C1` (single isomer, unassigned) [Compound 1156], the IC50 was less than 50 nM at PRMT5 [1]; less than 1000 nM in assay [2] (setting [7]); less than 100 nM in assay [3] (setting [8]); less than 100 nM in assay [4] (setting [9]); less than 50 nM on PRMT5 [5]; less than 50 nM on PRMT5 [6]. Further, in assay [3], the MTAP intact/deleted ratio entry is listed as “A (an IC50 ratio greater than or equal to 10 fold)”.
With `Cc1cc(NC(=O)C(=O)N2C[C@@H](C)[C@@H](CC(C)C)C[C@@H]2c2ccc3scnc3c2)cnc1N` (single isomer, unassigned) [Compound 1157], the IC50 is more than 500 nM at PRMT5 [1]; more than 10000 nM in assay [2] (setting [7]); more than 1000 nM in assay [3] (setting [8]); more than 1000 nM in assay [4] (setting [9]); more than 500 nM on PRMT5 [5]; more than 500 nM on PRMT5 [6].
Regarding `CO[C@@H]1C[C@@H](c2ccc3scnc3c2)N(C(=O)C(=O)Nc2cncc(C(N)=O)c2)C[C@@H]1C` (single isomer, unassigned) [Compound 1161], the IC50 on PRMT5 [1] was less than 50 nM; in assay [2] (setting [7]), less than 1000 nM; in assay [3] (setting [8]), less than 100 nM; in assay [4] (setting [9]) it was 100 to 1000 nM; on PRMT5 [5], less than 50 nM; on PRMT5 [6] it was 50 to 500 nM. Besides, the MTAP intact/deleted ratio result in assay [3] was “A (an IC50 ratio greater than or equal to 10 fold)”.
Consider `Cc1cc(NC(=O)C(=O)N2C[C@@H](C)CC[C@@H]2c2ccc3snc(C)c3c2)cnc1N` (single isomer, unassigned) [Compound 1166], for which the IC50 on PRMT5 [1] is less than 50 nM; in assay [2] (setting [7]), less than 1000 nM; in assay [3] (setting [8]), less than 100 nM; in assay [4] (setting [9]), less than 100 nM; at PRMT5 [5], less than 50 nM; at PRMT5 [6], 50 to 500 nM. Moreover, the MTAP intact/deleted ratio entry in assay [3] is on record as “B (an IC50 ratio greater than or equal to 3 fold but lower than 10 fold)”.
